According to patent US11365216B2, “Antiviral immunotropic agent for the treatment of acute respiratory viral infections” (PVP LABS PTE. LTD., priority 2018, dated 2022):
Where a SMILES comes first, the peptide text is derived from it. [ ]: non-standard residue; d: D form.

Legend:
[1] = tested on: influenza A virus/New Caledonia/20/99 (H1N1); assay: microbe, parasite or virus in culture; assay type: cell-based
[2] = tested on: influenza A virus/Aichi/2/69 (H3N2); assay: influenza-induced pneumonia in mice; assay type: in vivo
IL-6 = assay: production of pro-inflammatory cytokines in peripheral blood mononuclear cell culture; assay type: cell-based, healthy donors; settings: 5.10^−8 M, relative to control samples (100%)
Description: (§1) The effect of Dalargin on the synthesis of cytokines IL-1 (interleukin-1), IL-6 (interleukin-6) and TNF-α (tumour necrosis factor α) was evaluated in an in vitro experiment using a peripheral blood mononuclear cell culture of healthy donors (n=20). Stimulation with an enterobacterial polysaccharide was used to induce the production of pro-inflammatory cytokines.
(§2) In order to obtain a suspension of mononuclear cells, blood was diluted at a 1:2 ratio with medium 199, applied to a Ficoll-Paque density gradient, d=1.077 g/cm^3, and centrifuged at 400 g for 40 min. The white ring produced at the phase interface, which contained mononuclear cells, was carefully withdrawn with a Pasteur pipette and washed twice with medium 199 using 10-minute-long centrifugation (200 g). The precipitate was resuspended in a nutrient medium, counted in a Goryayev counting chamber and adjusted to the required concentration.
(§3) Dalargin was added at a molar concentration of 5.10^−8 M (Z0.036 μg/mL) to the test samples with the polysaccharide and mononuclear cell suspension. The drug was not added to control samples.
(§4) Cytokine quantitation in blood serum was performed using two-site ELISA.

TNF-α = assay: as above; assay type: cell-based, healthy donors; settings: 5.10^−8 M, relative to control samples (100%)
Description: as §1, §2, §3, §4

IL-1 = assay: as above; assay type: cell-based, healthy donors; settings: 5.10^−8 M, relative to control samples (100%)
Description: as §1, §2, §3, §4

IFN-α = assay: interferon-inducing effect in mice (ELISA of blood plasma); assay type: in vivo; settings: 24 hours after administration; Dalargin 1 mg/kg, ARBIDOL intragastrically; versus control groups
Description: The experiments were performed in 40 CBA×C57BI/6/male mice with a body weight of 20-25 g. The animals were randomised in 4 groups (of 10 animals each): two active groups (receiving Dalargin or ARBIDOL) and two control groups. One control group was intended for determining baseline INF levels (before the start of the experiment), the other group was intended for determining INF levels at 24 hours after the administration of placebo (saline), ensuring the equivalence of conditions.
Dalargin was administered at a dose of 1 mg/kg, which is equivalent to a human dose of 5-6 mg. ARBIDOL was administered intragastrically as a suspension premix in 1% starch gel. Statistical analysis was performed using the Bonferroni correction for multiple testing.
IFN-α levels in the blood plasma of mice was measured at 24 hours after the administration of the drugs. Blood for interferon determination was sampled from the heart under Nembutal anaesthesia (60 mg/kg). […] IFN levels were determined using commercially available enzyme-linked immunosorbent assay (ELISA) kits manufactured by VeriKine™ (USA). […]
The test samples and diluted standards were applied to the plate in duplicate. […] The activity of bound peroxidase was measured on a UNIPLAN™ (Picon) immunoassay analyser at 450 nm.

neutrophils = assay: phagocytic activity of peptone-mobilised neutrophils; assay type: in vivo, mice; settings: 0.2 mg/kg single dose, IM or intranasal
Description: (§5) Dalargin is currently authorised for human use in the single dose range from 1 to 5 mg, which, if recalculated for mice, corresponds to z0.2-1 mg/kg. Therefore, the dose used for evaluating the efficacy of the drug in murine phagocytic peritoneal exudate cells was 0.2 mg/kg. Of additional interest was an investigation of possible effect of the route of administration of the drug on functional activity of the phagocytes.
(§6) The immunomodulating activity of the drug was evaluated by microscopy. The test was performed in 60 male BALB/c mice with a body weight of 18-22 g. The animals were allocated to 6 equal groups of 10 mice each. Two groups served as controls. The active therapy groups received Dalargin IM or intranasally at a single dose of 0.2 mg/kg. Macrophage and neutrophil extraction procedures were performed on the next day after administering the study drugs.
The mice were given an intraperitoneal injection of 3-4 mL of 10% peptone solution as a chemoattractant to cause neutrophil accumulation, and 2 hours later the mice were euthanised using chloroform 2 hours later. […]
(§7) The phagocytic activity of neutrophils was evaluated by the following parameters: phagocytic index and phagocyte number. Functional activity of macrophages was evaluated by microscopy, as well as by their ability to absorb nitroblue tetrazolium (NBT) in the activated state.

type 5 adenovirus = assay: suppression of cytopathogenic effect of adenovirus in monolayer HeLa culture; assay type: cell-based
Description: The work was performed using type 5 adenovirus, which was procured in 1998 from the D.I. Ivanovsky Research Institute of Virology and stored in the Specialised Collection of a branch of the 48th Central Research Institute of the Ministry of Defence of Russia—Computing Centre.
A HeLa type culture (cervical carcinoma cells) with a density of 200-250 thousand/mL was used. Semisynthetic growth media based on Hank's solution containing 7.5 and 2% bovine serum respectively were used. A 48-hour monolayer culture of HeLa cells was infected with type 5 adenovirus at a dose of 0.01 TCID50 per cell. The monolayer culture was then incubated at 37±0.5° C. for 96 hours.
The antiviral activity of the product was evaluated by the suppression of the cytopathogenic effect (CPE) of the virus in the HeLa culture after the virus was applied to an established monolayer culture of HeLa cells.
Efficacy criteria of the test drug were: CPE detection rate and inhibitory constant (Ki, %). The inhibitory constant was calculated according to the following formula: Ki=100. (Cc-Ct)/Cc, where Cc and Ct is the infectious titre of the virus in the control sample and test sample respectively.

macrophages = assay: phagocytosis and NBT reduction of peritoneal exudate macrophages; assay type: in vivo, mice; settings: 0.2 mg/kg single dose, IM or intranasal
Description: as §5, §6
In order to isolate macrophages, the mice were euthanised on day 3 after the peptone injection. Then 3-4 mL of medium 199 with 10% of foetal bovine serum was administered intraperitoneally, and the liquid was aspirated. […]
as §7

natural killer cells = assay: functional (cytotoxic) activity of natural killer cells, radiometric assay with K-562 target cells; assay type: cell-based, healthy donors; settings: 5.10^−8 M (≈0.036 μg/mL), 24 hours
Description: When evaluating the effect of Dalargin in vitro on the functional activity of NK cells, these cells were obtained from a suspension of peripheral blood mononuclear cells of healthy donors (n=20).
Functional activity of NK cells was determined on the basis of the cytotoxic reaction (NK can lyse cells of myeloblastoid and lymphoblastoid lines) using the radiometric assay. To perform it, cells of the K-562 myeloblastoid line at a concentration of 10^6/mL were incubated for one hour at 37° C. with ^3H-uridine at 3 μCi/mL of the cell suspension on day 2 after subcultivation. After the incubation, the cells were washed off the radiolabel in medium 199 three times. […]
In one case, after the effector cells and target cells were applied to the plates, Dalargin was added at a molar concentration of 5.10^−8 M (≈0.036 μg/mL). […] The plates were then incubated for 24 hours in a CO2 incubator at 37° C., whereupon the contents were transferred to fibreglass filters, washed, dried, placed in vials with a scintillation liquid, and radioactivity was determined using a β-particle counter. cytotoxicity index (CI) was determined using the formula CI=((A−B)/(C−B)). 100%, where A is radioactivity of target cells in the presence of effector cells, B is residual radioactivity after treating the target cells with Triton X-100, C is radioactivity in target cells in the absence of effector cells.

SMILES | inhibition at 10 µg/mL ([1]; Influenza A virus, H1N1, MDCK, concentration of 10.0 μg/mL, read-out: inhibiting effect on the reproduction of epidemic virus strains) [%] | efficacy relative to Arbidol in terms of mean lifetime and survival rate ([2]; Dalargin 2 mg/kg/day IM or intranasal) | mortality due to influenza-induced pneumonia ([2]; IM or intranasal 2 mg/kg/day for 5 days, relative to placebo) | weight loss ([2]; relative to control/placebo, weighed on days 3, 5 and 15) | lipopolysaccharide-induced production of IL-6 (IL-6) | lipopolysaccharide-induced production of TNF-α (TNF-α) | lipopolysaccharide-induced production of IL-1 (IL-1) | MIC values (MIC50, concentration inhibiting virus reproduction by 50%), comparison ([1]; MDCK tissue culture, hexapeptide versus ARBIDOL) | IFN-α level in blood plasma/serum (IFN-α) | phagocytic activity (phagocytosis) of peptone-mobilised neutrophils (neutrophils) | protective efficacy (type 5 adenovirus; 10 μg/mL) [%] | growth of protective efficacy, administration 24 h before challenge relative to 2 hours after challenge (type 5 adenovirus; added to the maintenance medium) | protection of cells from the cytopathogenic effect of the virus (type 5 adenovirus; administered 24 h before challenge, 0.01 TCID50 per cell, concentrations of 100, 20 and 10) | phagocytosis of peritoneal exudate macrophages, ability to reduce NBT (macrophages) | effect on cytotoxic activity of natural killer cells (natural killer cells)
CCOC(=O)c1c(CSc2ccccc2)n(C)c2cc(Br)c(O)c(CN(C)C)c12 [ARBIDOL, reference compound] | 100 | – | – | – | – | – | – | – | – | – | – | – | – | – | –
CC(C)C[C@H](NC(=O)[C@H](Cc1ccccc1)NC(=O)CNC(=O)[C@@H](C)NC(=O)[C@@H](N)Cc1ccc(O)cc1)C(=O)N[C@@H](CCCNC(=N)N)C(=O)O [Dalargin, tyrosyl-D-alanyl-glycyl-phenylalanyl-leucyl-arginine] (H-Y[dA]GFLR-OH) | – | greater efficacy | reduces the mortality | reduces weight loss | significant suppression | significant suppression | significant suppression | lower MIC values | significant production | capable of increasing the phagocytic activity | 40.0 | 10-20% | almost completely protected | stimulating effect | immunotropic potential
